Source: patent US11160767B2, “4,4′-trans-dihydroxystilbene for use in treating cancer” (The George Washington University, a Congressionally …, priority 2017, dated 2021)

What was measured:
U2OS = assay: In vitro cytotoxicity (SRB assay), U2OS; type: cell-based; details: Homo sapiens, 72 hours
Experimental: (§1) Cell lines and cell culture. HCT116, U205, PANC-1, MDA-231 cell lines were purchased from the American Type Culture Collection (Rockville, Md., US). Cells were cultured in the DMEM medium (Lonza, Basel, Switzerland) containing 10% fetal bovine serum (Gibco, Grand Island, N.Y., US), 100 Units/ml penicillin, 100 Units/mL streptomycin, […] L-glutamine (Gibco, Grand Island, N.Y., US) at 37° C. in a humidified atmosphere with 5% CO2.
(§2) In vitro cytotoxicity assays. […] SRB assay (Vichai and Kirtikara, 2006) was performed and the absorbance at 510 nm was read with a plate reader. The proliferation rate was calculated according to the Manufacturer's instruction. The IC50 value for each compound was determined from dose-effect relationship using the CompuSyn software (version 1.0.1; CompuSyn, Inc, Paramus, N.J.) (Chou, 2006). Cell proliferating doubling time was monitored over a period of 72 hours.

HCT116 xenograft tumor = HCT116 xenograft tumor model; type: in vivo, nude mice; details: Day 38; DHS 50 mg/kg i.p. 14 consecutive days; cisplatin 8 mg/kg i.p.
Experimental: Xenograft mouse models. […] In xenograft studies, HCT116 (3×10^6 cells) and IGROV3/CP2 (5×10^6 cells) suspended in 100 μl of phosphate buffered saline (PBS, pH 7.4) were injected subcutaneously into the lower flank of the mice. Testing compounds were dissolved in DMSO/Tween 80/saline (10:10:80; v/v/v) buffer and were used to treat animals through intraperitoneal (i.p.) injection. […] The body weight of animals was measured throughout the study. Tumor diameters were measured with digital calipers, and the tumor volume in mm^3 was calculated by the formula: Volume=(width)^2×length/2.
HCT116 cells (5×10^6) were injected subcutaneously in nude mice and grown to approximately 100 mm^3 in volume. […] To study the preclinical toxicity of DHS, samples of hearts, livers, spleens, lung, and kidneys were collected on Day 38 and sections were stained for histological examination.

HCT116 cells [1] = assay: DNA fiber assay; type: cell-based, human
Experimental: Thus, the effect of DHS on DNA replication and cell cycle progression was investigated. Replication fork speeds were examined by DNA fiber assay (FIG. 7A). Briefly, DHS, hydroxyurea (Hu), or Aphidicolin (Aph) was added to HCT116 cells 2 hours prior to labeling of DNA with iododeoxyuridine (IdU) and/or chlorodeoxyuridine (CldU).

SKOV3-CP7 = assay: DHS and cisplatin, SKOV3-CP7 cells; type: cell-based, human
Text: (§3) The effect of DHS on a human SKOV3 ovarian cell line and its cisplatin-resistant subline, SKOV3/CP7, was investigated.

plasmid DNA = assay: Incubation with plasmid DNA, UV absorption; type: binding
Text: In addition, resveratrol has been previously reported to interact with DNA grooves (Usha et al., 2006). […] A similar result with And-1, RRM1, and RRM2 was also observed in DHS resistant HCT116 cells (data not shown).

PANC-1 = assay: In vitro cytotoxicity (SRB assay), PANC-1; type: cell-based; details: Homo sapiens, 72 hours
Experimental: as §1, §2

HCT116 = assay: In vitro cytotoxicity (SRB assay), HCT116; type: cell-based; details: Homo sapiens, HCT-116, 72 hours
Experimental: as §1, §2

And-1 protein = And-1 protein level by Western blot; type: cell-based; details: U2OS and HCT116 cells
Experimental: (§4) Western blot analysis. Compound-treated cells were harvested and lysed. Protein extracts were subjected to electrophoresis in a SDS-polyacrylamide gel. The resolved proteins were transferred onto polyvinylidene difluoride membranes (Amersham Biosciences, Piscataway, N.J., US). After the blocking step, membranes were incubated with primary IgG antibodies, washed, and then incubated with horseradish peroxidase-conjugated anti-rabbit IgG or anti-mouse IgG secondary antibodies. Western blot signals were visualized by chemiluminescence using SuperSignal West Pico chemiluminescence reagent (Pierce, Rockford, Ill., US).
The effect of DHS treatment on And-1, RRM1, and RRM2 expression was investigated.

HCT116 cells [2] = assay: dNTP amount in treated cells; type: cell-based, human
Text: The effect of DHS on dNTP synthesis was investigated by measuring the amount of dNTPs in DHS-treated HCT116 cells.

SKOV3 = assay: DHS and cisplatin, SKOV3 cells; type: cell-based, human
Text: as §3

HCT116 cells [3] = assay: Comet assay; type: cell-based, human; details: 2.5 μM for 24 hours
Experimental: Comet assay. HCT116 cells were treated with DHS for 0.5 or 24 hours. Afterward, the cells were irradiated with X-rays at a dose of 20 Gy. An aliquot of 80 μL cell suspension were mixed with 400 μL 1.2% low melting point agarose and plated on Fisherfinest microscope slide (Thermo Scientific, Pittsburgh, Pa., US), which had already been layered with 120 μL 1% agarose gel. Cells were then lysed and DNA was electrophoretically separated. The gels were neutralized before staining with 60 μL of 5 μM SYBR green. The shape of the stained DNA mass in at least 50 cells in each sample was analyzed with OpenComet software (MA, US).
(§5) To investigate whether inhibition of DNA replication by DHS can trigger DNA damage, the DNA damage markers phosphor-Chk1 (pChk1, Serine 345) and phosphor-Chk2 (pChk2, Threonine 68) were analyzed in DHS-treated HCT116 cells. […] A comet assay was next used to test if DNA double strand breaks are induced by DHS.

[4] = target: T1, truncated-RRM2 protein (deletion of GLU147 to ILE166) (Homo sapiens, UniProt P31350, DEL147-166); assay: Thermal shift assay, truncated RRM2; type: cell-based; details: HCT116 cells
T1 construct: expressed in transfected cells; host or cells: HCT116
Text: To verify the DHS binding site on RRM2, a RRM2 construct with a deletion of GLU147 to ILE166 was generated. […] Since Hu is also known to interact with RRM2 protein, the effect of DHS on Hu binding to RRM2 was investigated using a cellular thermal shift assay with KB-Hu (an Hu resistant oral cancer cell line).

[5] = test system: phosphorylated histone 2AX; assay: γH2AX immunostaining; type: cell-based, human; details: HCT116 cells, 10 μM for 12 hours
[6] = test system: phosphor-Chk1 (pChk1, Serine 345); assay: DNA damage markers by Western blot; type: cell-based, human; details: HCT116 cells, 10 μM for 20 minutes
Experimental: as §4, §5

MDA-231/GFP = assay: In vitro cytotoxicity (SRB assay), MDA-231/GFP; type: cell-based; details: Homo sapiens, MDA-MB-231, 72 hours
Experimental: as §1, §2

T1 sequence (P31350 with tags, fused parts or gaps DEL147-166): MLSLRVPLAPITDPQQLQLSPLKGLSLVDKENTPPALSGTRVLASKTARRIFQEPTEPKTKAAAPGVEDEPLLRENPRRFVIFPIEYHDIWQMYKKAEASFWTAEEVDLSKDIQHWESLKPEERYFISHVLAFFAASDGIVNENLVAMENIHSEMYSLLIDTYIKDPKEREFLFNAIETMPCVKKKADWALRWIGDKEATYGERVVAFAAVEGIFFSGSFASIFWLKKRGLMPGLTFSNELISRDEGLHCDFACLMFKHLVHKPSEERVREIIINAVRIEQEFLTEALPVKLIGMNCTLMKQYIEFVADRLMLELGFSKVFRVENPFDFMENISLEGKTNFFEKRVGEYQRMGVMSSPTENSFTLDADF

## Oc1ccc(/C=C/c2ccc(O)cc2)cc1 [DHS, 4,4′-trans-dihydroxystilbene]
U2OS
  IC50: 1.23 ± 0.73 µM
HCT116 xenograft tumor
  Reduction in tumor volume as compared with the vehicle control group: ~50%
HCT116 cells [1]
  Rate of replication fork progression (folk speed): significantly reduced
HCT116 cells [1]; added 2 hours prior to labeling
  DNA replication stalling: dramatically caused DNA replication stalling
SKOV3-CP7
  Re-sensitisation to cisplatin: re-sensitized the SKOV3/CP7 cells to cisplatin
  Sensitivity to DHS alone: sensitive to DHS treatment alone
Plasmid DNA
  UV absorption on incubation with plasmid DNA (DNA binding): increased UV absorption
PANC-1
  IC50: 22 ± 6.42 µM
HCT116
  IC50: 2.3 ± 0.78 µM
And-1 protein
  And-1 protein level: caused down-regulation of And-1 protein
HCT116 cells [2]
  dNTP synthesis: inhibited synthesis of dATP, dCTP, dGTP, and dTTP
SKOV3
  Sensitivity to DHS alone: sensitive to DHS treatment alone
HCT116 cells [3]
  DNA double strand breaks (lengths of tail moments): caused significant DNA double strand breaks
[4]
  Thermal stability of truncated RRM2: not able to maintain thermal stability of the truncated-RRM2 protein
[5]
  Levels of γH2AX: Increased levels of phosphorylated histone 2AX
[6]
  DNA damage (phosphorylated CHK1, pSerine 345): more potent than resveratrol and the other analogs
MDA-231/GFP
  IC50: 5.32 ± 3.38 µM
